According to patent publication US20160221948A1, “NITROGEN-CONTAINING SATURATED HETEROCYCLIC COMPOUND” (SUMITOMO CHEMICAL COMPANY, LIMITED, priority 2013, published 2016):

Assays:
[1] = Pharmacokinetic test (PK test) using rodents; format: in vivo; conditions: mouse, brain and plasma; mice, 10 mg/kg oral, an hour and 4 hours after; read-out: brain-plasma concentration ratio
Protocol: Moreover, it was verified, as the results of a pharmacokinetic test (PK test) using rodents, that the compound of the present invention has more excellent in vivo kinetics, central nervous system penetration, and exposure level, compared with the pyrrolidine derivative described in Patent Literature 1. In particular, the following Test Example 8 was performed.
Pharmacokinetic Test (PK Test) Using Rodents
Compounds of the present invention were orally administered to mice at a dose of 10 mg/kg, and an hour and 4 hours after, the plasma and the brain were collected, concentrations of the administered compounds were measured by LC/MS/MS. As well, protein binding rates in the plasma and the brain were measured with equilibrium dialysis method, and concentrations of non-binding compounds were calculated. The brain-plasma concentration ratio was about 5 in any cases of an hour and 4 hours after for compounds obtained in Examples 7, 14, 15, 16, 17, 18, 20, 21, 27, 40, and 50, which indicated excellent central nervous system penetration.

[2] = target: human SSTR4 (Homo sapiens, UniProt P31391); experiment: Evaluation of agonist activities using human SSTR4-stably expressing cells (aequorin luminescence); format: cell-based; design: expressed in transfected cells; host or cells: HEK293; conditions: for EC50: luminescence signal, 1 μmol/L somatostatin taken as 100%; for SSTR4 agonist activity compared with other compounds: Tables 25 to 27
Protocol: Evaluation of Agonist Activities Using Cells that stably expressing human-derived SSTR4 (human SSTR4-stably expressing cells)
(1) Human SSTR4-Stably Expressing Cells
Human SSTR4-stably expressing cells were prepared, and cultured. Specifically, HEK293 cells, human kidney-derived cells, were used as host cells. By introducing pcDNA3.1 (cat. No. V79020, invitrogen, Carlsbad, Calif., USA) to which human SSTR gene was inserted into HEK293 cells, human SSTR4-stably expressing cell line was obtained. For selection, G418 (cat. No. 16513-84, Nacalai tesque, Japan) was used.
As the culture medium, D-MEM medium (cat. No. 11995, GIBCO, USA), containing 10% FBS and 200 μg/mL G418, was used, the culture was performed in a 225 cm^2 flask (cat. No. 11-006-010, Iwaki, Japan).
At about 80% confluence, the cells were harvested by treating with 20-fold diluted 0.25% Trypsin-EDTA (cat. No. 35554-64, Nacalai, tesque, Japan). The harvested cells were prepared at a reaction medium composed of Hanks Buffer (cat. No. 14065-056, invitrogen, Carlsbad, Calif., USA)/20 mM Hepes (cat. No. 15630-080, invitrogen, Carlsbad, Calif., USA), and 0.1% BSA (cat. No. A7906, Sigma Aldrich, USA) to 70000 cells/mL. Gα16 and apoaequorin were transiently introduced to the harvested cells, and the cells were seeded to a 384 well plate (cat. No. 781090, Greiner, Germany) at about 2000 cells/30 μL/well. On the next day of cell seeding, Coelenterazine H (cat. No. S2011, Promega, USA) was added to each well (10 μL/well) to make a final concentration of 0.5 μmol/L, and the plate was centrifuged. Then, the plate was left at room temperature for 4 hours in shaded state.
(2) Preparation of Test Compounds
DMSO solution of each test compound having 1000-fold larger concentration than the final concentration was prepared. The DMSO solutions were made to have 10-fold concentration than the final concentration with Hanks/20 mmol/L Hepes/0.1% BSA.
(3) Evaluation of Agonist Activity
For detection of luminescence signal due to SSTR4-stimulation, FDSS7000 (manufactured by Hamamatsu Photonics K.K.) was used. To plates having cells and the luminescence substrate, solutions of test compounds were added, then each luminescence signal was measured for 90 seconds, and each relative luminescence unit (RLU) was calculated. Based on luminescence signal from the wells to which a 1 μmol/L somatostatin solution was added taken as 100%, agonist activity of each test compound was evaluated.

[3] = tested on: Slc:ddY mice; experiment: Mouse Y-shaped maze test, scopolamine-induced memory impairment; format: in vivo; conditions: for spontaneous alternations: Scopolamine HBr 0.6 mg/kg subcutaneous
Protocol: Evaluation of amelioration in cognitive impairment using mouse Y-shaped maze test (hereinafter, may be called “Y-maze test”)
In the Y-maze test using Slc:ddY mice (male, Japan SLC, Inc.) with body weight of 25-35 g or 27-30 g, when 0.6 mg/kg of Scopolamine HBr (cat. No. S0929, Sigma Aldrich, USA) is subcutaneously administered to mice, memory impairment is caused, and reducing in spontaneous alternation is observed. Accordingly, mice were pre-treated by orally receiving compounds involved with the present invention, and ameliorating action in memory impairment was evaluated. […] (hereinafter, spontaneous alternations in each group in Example 21 are shown: 0.5% MC receiving group, 71.2±3.5; Scopolamine receiving group, 47.5±2.6; 1 mg/kg receiving group, 60.7±2.6; 3 mg/kg receiving group, 64.6±2.2.)

[4] = tested on: Slc:ddY mice; experiment: Mouse novel object recognition test (mORT); format: in vivo; conditions: 3 mg/kg (oral), administered before the first trial
Protocol: Evaluation of cognitive function using mouse novel object recognition test (hereinafter, may be called “mORT”)
In the mORT using Slc:ddY mice (male, Japan SLC, Inc.) with body weight of 25-45 g or 35-40 g, memory deterioration to familiar subject depending on the interval time between the first trial (training) and the second trial (test) is observed. If the second trial is performed 24 hours after performing the first trial, significant forgetting is observed. […] […] (discrimination index as indexes for cognitive function are shown: 0.5% MC receiving group, 0.054±0.026; 3 mg/kg receiving group, 0.245±0.066.)

Chain of human SSTR4 (P31391 whole entry): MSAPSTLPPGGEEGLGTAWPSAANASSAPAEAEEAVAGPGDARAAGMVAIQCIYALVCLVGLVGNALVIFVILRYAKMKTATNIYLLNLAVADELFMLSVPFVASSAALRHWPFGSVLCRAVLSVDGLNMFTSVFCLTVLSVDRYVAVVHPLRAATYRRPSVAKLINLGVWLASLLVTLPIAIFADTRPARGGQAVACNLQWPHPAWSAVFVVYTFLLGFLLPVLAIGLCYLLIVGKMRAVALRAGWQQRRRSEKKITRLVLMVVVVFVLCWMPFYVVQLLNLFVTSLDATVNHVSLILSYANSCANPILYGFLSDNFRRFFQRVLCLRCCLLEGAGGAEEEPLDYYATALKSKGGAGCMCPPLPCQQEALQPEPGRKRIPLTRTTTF

SMILES | Kp [1] | EC50 [2] [nM] | SSTR4 agonist activity compared with other compounds [2] | spontaneous alternations ([3]; 1 mg/kg oral) | spontaneous alternations ([3]; 3 mg/kg oral) | ameliorating action in memory impairment ([3]; at 1 or 3 mg/kg (oral)) | memory enhancing action [4]
CN1CCC[C@H](C(=O)NC(C)(C)c2ccccc2Cl)C1 [Example 40, (3S)—N-[2-(2-chlorophenyl)propane-2-yl]-1-methylpiperidine-3-carboxamide] | ~5 | 4.8 | – | – | – | – | –
Cc1c(Cl)cccc1C(C)(C)NC(=O)C1CCCN(C)C1 (centres unmarked) [Example 14] | ~5 | 5.7 | – | – | – | – | –
CN1CCC[C@H](C(=O)NC(C)(C)c2cccc3ccccc23)C1 [Example 2, (3S)-1-methyl-N-[2-(naphthalene-1-yl)propane-2-yl]pyperidine-3-carboxamide] | – | – | stronger SSTR4 agonist activity | 59.6±3.2 | 65.0±1.8 | significant ameliorating action in memory impairment | a tendency to enhance memory
CN1CCCC(C(=O)NC(C)(C)c2cc(Cl)cc(Cl)c2)C1 (centres unmarked) [Example 7] | ~5 | 4.3 | stronger SSTR4 agonist activity | – | – | – | –
CN1CCCC(C(=O)NC(C)(C)c2cc(Cl)ccc2Cl)C1 (centres unmarked) [Example 15] | ~5 | 3.5 | stronger SSTR4 agonist activity | – | – | – | –
Cc1ccc(Cl)cc1C(C)(C)NC(=O)[C@H]1CCCN(C)C1 [Example 50, (3S)—N-[2-(5-chloro-2-methylphenyl)propane-2-yl]-1-methylpiperidine-3-carboxamide] | ~5 | 4.3 | – | – | – | – | –

More lines, main results first:

Kp [1] | EC50 [2] [nM] | SSTR4 agonist activity compared with other compounds [2] | SMILES | spontaneous alternations ([3]; 1 mg/kg oral) | spontaneous alternations ([3]; 3 mg/kg oral) | ameliorating action in memory impairment ([3]; at 1 or 3 mg/kg (oral)) | memory enhancing action [4]
~5 | 2.1 | stronger SSTR4 agonist activity | Cc1c(Cl)cccc1C(C)(C)NC(=O)[C@H]1CCCN(C)C1 [Example 27, (3S)—N-[2-(3-chloro-2-methylphenyl)propane-2-yl]-1-methylpiperidine-3-carboxamide] | – | – | – | –
~5 | 1.3 | stronger SSTR4 agonist activity | CN1CCC[C@H](C(=O)NC(C)(C)c2ccc(Cl)cc2Cl)C1 [Example 20, (3S)—N-[2-(2,4-dichlorophenyl)propane-2-yl]-1-methylpiperidine-3-carboxamide] | – | – | – | –
~5 | 2 | stronger SSTR4 agonist activity | CN1CCC[C@H](C(=O)NC(C)(C)c2cc(Cl)cc(Cl)c2)C1 [Example 18] | – | – | – | –
~5 | 2.3 | stronger SSTR4 agonist activity | CN1CCCC(C(=O)NC(C)(C)c2cccc(Cl)c2Cl)C1 (centres unmarked) [Example 16] | – | – | – | –
~5 | 2.3 | stronger SSTR4 agonist activity | CN1CCCC(C(=O)NC(C)(C)c2ccc(Cl)cc2Cl)C1 (centres unmarked) [Example 17] | – | – | – | –
